According to PubChem BioAssay AID1918995 (Molecular Pharmacology Branch, DTP, NCI, 2023):
Where “and” joins values, the source holds several entries; their conditions need not be identical. Identical values can stand only once.

Test system: 324938-238-R-J1-PDC complex spheroid growth, % test/control
Assay: Anticancer human tumor 324938-238-R-J1-PDC patient-derived bladder carcinoma cell line growth inhibition [AhR]
Settings: for viability, T/C: stronger effect = lower value
Outline: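 Spheroids combined tumor cells with HUVEC endothelial cells and human MSCs as stroma. AhR antagonists were paired with standard or investigational drugs, each dosed in half-log steps down from near clinical Cmax, or from 10 microM where Cmax was unknown.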

[1] = curve of first compound, second compound 0.1 µM
[2] = curve of first compound, second compound 0.316 µM
[3] = curve of first compound, second compound 1 µM
[4] = curve of first compound, second compound 3.16 µM
[5] = curve of first compound, second compound 10 µM
[6] = second compound 0.1 µM, first compound 0.0316 µM
[7] = second compound 0.1 µM, first compound 0.1 µM
[8] = second compound 0.1 µM, first compound 0.316 µM
[9] = second compound 0.1 µM, first compound 1 µM
[10] = second compound 0.1 µM, first compound 3.16 µM
[11] = second compound 0.1 µM, first compound 10 µM
[12] = second compound 0.316 µM, first compound 0.0316 µM
[13] = second compound 0.316 µM, first compound 0.1 µM
[14] = second compound 0.316 µM, first compound 0.316 µM
[15] = second compound 0.316 µM, first compound 1 µM
[16] = second compound 0.316 µM, first compound 3.16 µM
[17] = second compound 0.316 µM, first compound 10 µM
[18] = second compound 1 µM, first compound 0.0316 µM
[19] = second compound 1 µM, first compound 0.1 µM
[20] = second compound 1 µM, first compound 0.316 µM
[21] = second compound 1 µM, first compound 1 µM
[22] = second compound 1 µM, first compound 3.16 µM
[23] = second compound 1 µM, first compound 10 µM
[24] = second compound 3.16 µM, first compound 0.0316 µM
[25] = second compound 3.16 µM, first compound 0.1 µM
[26] = second compound 3.16 µM, first compound 0.316 µM
[27] = second compound 3.16 µM, first compound 1 µM
[28] = second compound 3.16 µM, first compound 3.16 µM
[29] = second compound 3.16 µM, first compound 10 µM
[30] = second compound 10 µM, first compound 0.0316 µM
[31] = second compound 10 µM, first compound 0.1 µM
[32] = second compound 10 µM, first compound 0.316 µM
[33] = second compound 10 µM, first compound 1 µM
[34] = second compound 10 µM, first compound 3.16 µM
[35] = second compound 10 µM, first compound 10 µM
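Further: spheroids exposed to agents for seven days before viability read.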

| IC50 [1] | IC50 [2] | IC50 [3] | IC50 [4] | IC50 [5] | SMILES | viability, T/C [6] | viability, T/C [7] | viability, T/C [8] | viability, T/C [9] | viability, T/C [10] | viability, T/C [11] | viability, T/C [12] | viability, T/C [13] | viability, T/C [14] | viability, T/C [15] | viability, T/C [16] | viability, T/C [17] | viability, T/C [18] | viability, T/C [19] | viability, T/C [20] | further results |
| --- | --- | --- | --- | --- | --- | --- | --- | --- | --- | --- | --- | --- | --- | --- | --- | --- | --- | --- | --- | --- | --- |
| – | – | – | – | – | O=C(c1cc(Cc2n[nH]c(=O)c3ccccc23)ccc1F)N1CCN(C(=O)C2CC2)CC1 | – | – | – | – | – | – | – | – | – | – | – | – | – | – | – | viability, T/C (compound 0.0316 µM): 115% and 100% and 97.8%; viability, T/C (compound 0.1 µM): 73.1% and 102% and 96.9%; viability, T/C (compound 0.316 µM): 66% and 103% and 82%; viability, T/C (compound 1 µM): 86.6% and 110% and 88.1%; viability, T/C (compound 3.16 µM): 69.2% and 90.5% and 77.8%; viability, T/C (compound 10 µM): 79% and 74.1% and 47.3%; IC50 (curve of compound): > 10 µM and 9.37 µM |
| 5.95 µM | 4.66 µM | 3.88 µM | 4.6 µM | 5.12 µM | CC1COCCN1c1cc(C2(S(C)(=N)=O)CC2)nc(-c2ccnc3[nH]ccc23)n1 (stereo not drawn) + Cc1ccccc1N=Nc1ccc(NC(=O)c2ccnn2C)c(C)c1 | 97.8% | 96.8% | 98.3% | 90.4% | 68.5% | 34.9% | 84.1% | 89.5% | 90.3% | 80.2% | 59% | 32.8% | 91.3% | 83.5% | 95% | viability, T/C [21]: 84.6%; viability, T/C [22]: 53.4%; viability, T/C [23]: 34.8%; viability, T/C [24]: 72.7%; viability, T/C [25]: 78.2%; viability, T/C [26]: 76.5%; viability, T/C [27]: 68.6%; viability, T/C [28]: 57.3%; viability, T/C [29]: 33.2%; viability, T/C [30]: 73.8%; viability, T/C [31]: 69.3%; viability, T/C [32]: 68.7%; viability, T/C [33]: 66%; viability, T/C [34]: 56.5%; viability, T/C [35]: 40.8% |
| > 10 µM | > 10 µM | > 10 µM | > 10 µM | > 10 µM | COc1ccc([C@@H](O)c2cc(-c3ncnc4cc(N5CCOCC5)ccc34)c(F)cc2Cl)nn1 + CC(CO)NC(=O)c1cc(-c2ccc(Cl)cc2)nn(-c2cnn(C)c2)c1=O | 99.4% | 110% | 90.2% | 81.8% | 78.5% | 66.5% | 89.4% | 93.4% | 96.8% | 76.4% | 71.6% | 59.5% | 88.8% | 88.7% | 91.6% | viability, T/C [21]: 70.6%; viability, T/C [22]: 59.5%; viability, T/C [23]: 60.1%; viability, T/C [24]: 75.2%; viability, T/C [25]: 71.1%; viability, T/C [26]: 68.3%; viability, T/C [27]: 60%; viability, T/C [28]: 63.6%; viability, T/C [29]: 51.8%; viability, T/C [30]: 70.7%; viability, T/C [31]: 65.5%; viability, T/C [32]: 63.8%; viability, T/C [33]: 56.1%; viability, T/C [34]: 55%; viability, T/C [35]: 55.8% |
| – | – | – | – | – | Nc1ccccc1NC(=O)c1ccc(CNC(=O)OCc2cccnc2)cc1 | – | – | – | – | – | – | – | – | – | – | – | – | – | – | – | viability, T/C (compound 0.0316 µM): 90% and 112% and 121%; viability, T/C (compound 0.1 µM): 80.4% and 111% and 110%; viability, T/C (compound 0.316 µM): 57.2% and 107% and 97.9%; viability, T/C (compound 1 µM): 61.7% and 69% and 70.3%; viability, T/C (compound 3.16 µM): 37.1% and 43.2% and 58.1%; IC50 (curve of compound): 1.31 µM and 2.2 µM and 3.5 µM |
| 2.18 µM | 1.58 µM | 2.11 µM | 1.76 µM | 0.916 µM | CC1COCCN1c1cc(C2(S(C)(=N)=O)CC2)nc(-c2ccnc3[nH]ccc23)n1 (stereo not drawn) + CC(CO)NC(=O)c1cc(-c2ccc(Cl)cc2)nn(-c2cnn(C)c2)c1=O | 95.6% | 109% | 89.6% | 69.8% | 41.4% | 19.8% | 103% | 97.5% | 91.5% | 57.2% | 37.3% | 20.6% | 89.4% | 95.9% | 98.1% | viability, T/C [21]: 72%; viability, T/C [22]: 38.6%; viability, T/C [23]: 22.5%; viability, T/C [24]: 81.3%; viability, T/C [25]: 77.9%; viability, T/C [26]: 76.3%; viability, T/C [27]: 65.6%; viability, T/C [28]: 34%; viability, T/C [29]: 16.7%; viability, T/C [30]: 70.3%; viability, T/C [31]: 73.6%; viability, T/C [32]: 68.8%; viability, T/C [33]: 47.3%; viability, T/C [34]: 28.8%; viability, T/C [35]: 20% |
